Results: patent US6569846B1, “Palladium-substituted bacteriochlorophyll derivatives and use thereof” (Yeda Research and Development Co. Ltd., priority 1998, dated 2003)
“And” between values parts separate entries of the source, which are not always exact repeats. Equal entries are not always repeated.

How the values were obtained:
[1] = tested on: A431 human epithelial carcinoid cells
Method: (ii) Light source: Halogen lamp (Osram, Germany, 100 W), with 4.5 cm water filter and cut off filter>650 nm. The cells were illuminated for 10 minutes, 15 mW/cm^2, a total energy fluency of 9 J/cm^2. For illumination, the culture plates were placed on a glass table to provide the light from the bottom.
(iii) Phototoxicity study: A431 cells (5×10^4 cells) were seeded in 3 cm dishes in duplicates and cultured to 75% confluency in Dulbecco's modified Eagle's medium (DMEM)+F12 (1:1), buffered with HEPES (25 mM, pH 7.4), fetal calf serum (FCS) with penicillin (0.06 mg/ml) and streptomycin (0.1 mg/ml). […] After a 4-hour period the cells were washed with culture medium and the cells were illuminated with the light source above. Phase contrast microscopic examination was performed at different time points after illumination (0, 0.5, 4 and 24 hours post-PDT) using Zeiss Axiovert-35 light microscope (magnification X320) equipped with a Contax 35 mm SLR camera. In the second dish of every duplicate, cell viability was assessed 24 hours post-PDT using neutral red viability assay (Zhang S Z., 1990, Cell Biol Toxicol 6(2): 219-234).

[2] = tested on: L1210 murine leukemia cells; test: In vitro phototoxicity on L1210 cells (MTT); assay type: cell-based; details: 1 μM, 30 min at 37° C.
Method: (§1) (i) Cell lines. The murine leukemia cell line (L1210) was maintained in suspension culture using Fischer's medium supplemented with 10% horse serum, 1 mM glutamine, 1 mM mercaptoethanol and gentamicin. The RIF (Radiation induced Fibrosarcoma) tumor was maintained as specified by Twentyman et al. (1980, “A new mouse tumor model system (RIF-1) for comparison of end-point studies”, J. Natl. Cancer Inst., 64, 595-604). Cultures were grown in Weymouth's medium containing 10% fetal calf serum and gentamycin.
(ii) In vitro phototoxicity. For studies on phototoxicity involving L1210 and RIF cells, light was provided by a 600 watt quartz-halogen source filtered with 10 cm of water and a 850 nm cut-off filter to remove IR. […] […] The cells were then washed free from the sensitizer, and transferred to fresh media. Irradiations were carried out at 10° C. For some studies, the cells were then labeled with fluorescent probes and sites of photodamage were assessed. In other studies, the cells were then incubated for 60 min at 37° C. in fresh medium to allow apoptosis to proceed. Viability studies were carried out using 96-well plates and a 72-hour MTT assay, in quadruplicate.
(§2) (iii) Cell Viability. Cell survival was assessed by the MTT reaction carried out 3 days after plating of 1,000-50,000 cells in 96 well plates. […] Absorbance at x nm was determined with a BioRad Plate reader. […]

RIF-1 fibrosarcoma = test: In vivo PDT of RIF-1 fibrosarcoma; design: key to Summary (cures), symbol: −: no response
Method: Photodynamic therapy parameters: Mice with tumors measuring 5-7 mm in diameter were entered into PDT experiments. Three Pd-BPheid drug doses (1, 5 and 10 mg/kg) and two light doses (100 and 300 Joules/sq.cm) were evaluated. A formulation of Pd-BPheid dissolved in Cremophor was administered by i.v. tail injection. PDT light exposure was started either 15 minutes, 1 hour or 4 hours following injection. […] A titanium sapphire laser tuned to 757 nm was used as the light source for PDT. Laser generated light was coupled into quartz fibers for delivery of light to tumors. A light power density of 75 mW/sq.cm was used. Tumor size was measured 3 days per week following PDT treatments and the percentage of tumor cures (defined as no tumor recurrence for 40 days post treatment) was determined.
In vivo PDT Response: Tables 4 and 5 hereinafter provide summaries of the PDT treatment results for C3H mice transplanted with either the BA mammary carcinoma or the RIF-1 fibrosarcoma. Each table indicates the following parameters: 1) intravenous drug dose expressed in mg/kg; 2) laser treatment parameters, including the total light dose (J/cm^2), the wavelength (757 nm), the light dose rate (mW/cm^2), and the time interval ([…], 4) toxicity (four mice died shortly after treatment), 5) tumor regrowth (consisting of the number of days between PDT treatment and tumor recurrence) and 6) the number of mice (and percentage) with Pd-BPheid PDT induced tumor cures.

[3] = tested on: RIF (Radiation induced Fibrosarcoma) line; test: In vitro phototoxicity on RIF cells (MTT); assay type: cell-based, mouse
Method: as §1
(ii) In vitro phototoxicity. For studies on phototoxicity involving L1210 and RIF cells, light was provided by a 600 watt quartz-halogen source filtered with 10 cm of water and a 850 nm cut-off filter to remove IR. The bandwidth was further confined to 660±5 nm by an interference filter (Oriel). Cells in suspension (L1210) or adhering to 24 mm diameter cover slips were incubated in growth medium (with 20 mM HEPES pH 7 replacing NaHCO3 for added buffering capacity) for 15 min in the presence of specified levels of sensitizers. […] For some studies, the cells were then labeled with fluorescent probes and sites of photodamage were assessed. […]
as §2

[4] = Stability of Pd-BPheid solutions by HPLC profile; assay type: physicochemical
Method: A reverse phase HPLC method was developed to characterize the impurity profile and quantify the Palladium-BPheid.
Solutions of Pd-BPheid stored in acetone at −20° C. were stable for at least 2-month period.

[5] = 1 mg/Kg i.v., 300 J/cm^2, 757 nm, 75 mW/cm^2, 15 min. interval
[6] = 5 mg/Kg i.v., 300 J/cm^2, 757 nm, 75 mW/cm^2, 1 HR. interval
[7] = 5 mg/Kg i.v., 300 J/cm^2, 757 nm, 75 mW/cm^2, 15 min. interval
[8] = 10 mg/Kg i.v., 100 J/cm^2, 757 nm, 75 mW/cm^2, 1 HR interval
[9] = 10 mg/Kg i.v., 100 J/cm^2, 757 nm, 75 mW/cm^2, 15 min. interval
[10] = 10 mg/Kg i.v., 300 J/cm^2, 757 nm, 75 mW/cm^2, 1 HR interval
[11] = 10 mg/Kg i.v., 300 J/cm^2, 757 nm, 75 mW/cm^2, 4 HR interval
[12] = 10 mg/Kg i.v., 300 J/cm^2, 757 nm, 75 mW/cm^2, 15 min. interval

CC[C@H]1C2=NC(=Cc3c(C(C)=O)c(C)c4[n]3[Pd][n]3c(c(C)c5c3=C(C3=NC(=C4)[C@@H](C)[C@@H]3CCC(=O)O)[C@@H](C(=O)OC)C5=O)=C2)[C@@H]1C [Pd-BPheid, Pd-bacteriopheophorbide a]
LD90 concentration ([1]; 4-hour incubation, illuminated 10 minutes, 15 mW/cm^2, 9 J/cm^2): 0.1 µM
cells that lost most of their inner volume ([1]; after 4 hours post PDT): 90%
time of alteration in the cells membrane structure ([1]; post PDT): 30 min
morphological phenotype post PDT ([1]; sensitizer at LD90 concentration, phase contrast microscopy): fibrous phenotype
cell killing ([2]; 75 mJ/cm^2 light at 760±5 nm): 50%
dose of light resulting in 50% cell killing ([2]; light at 760±5 nm): 75 mJ/cm^2
Number of Animals with Primary Tumor Regrowth (Days to Recurrence) (RIF-1 fibrosarcoma; [5]): 2(1 day)
Summary (cures), symbol (RIF-1 fibrosarcoma; [5]): −
Toxicity (Treatment associated death) (RIF-1 fibrosarcoma; [5]): 0
Number of Animals with Primary Tumor Regrowth (Days to Recurrence) (RIF-1 fibrosarcoma; [6]): 1(4 days) and 1(2 days) and 1(7 days)
Toxicity (Treatment associated death) (RIF-1 fibrosarcoma; [6]): 0
Number of Animals with Primary Tumor Regrowth (Days to Recurrence) (RIF-1 fibrosarcoma; [7]): 1(5 days) and 1(12 days)
Summary (cures) % (RIF-1 fibrosarcoma; [7]): 33.33%
Summary (cures), number of animals (days) (RIF-1 fibrosarcoma; [7]): 1(40 days)
Toxicity (Treatment associated death) (RIF-1 fibrosarcoma; [7]): 0
Number of Animals with Primary Tumor Regrowth (Days to Recurrence) (RIF-1 fibrosarcoma; [8]): 2(3 days) and 1(6 days)
Toxicity (Treatment associated death) (RIF-1 fibrosarcoma; [8]): 0
Number of Animals with Primary Tumor Regrowth (Days to Recurrence) (RIF-1 fibrosarcoma; [9]): 2(12 days) and 1(7 days)
Toxicity (Treatment associated death) (RIF-1 fibrosarcoma; [9]): 0
Number of Animals with Primary Tumor Regrowth (Days to Recurrence) (RIF-1 fibrosarcoma; [10]): 1(20 days)
Summary (cures) % (RIF-1 fibrosarcoma; [10]): 25.00%
Summary (cures), number of animals (days) (RIF-1 fibrosarcoma; [10]): 1(40 days)
Toxicity (Treatment associated death) (RIF-1 fibrosarcoma; [10]): 2
Toxicity (Treatment associated death), number of animals (day) (RIF-1 fibrosarcoma; [10]): 2(1 day)
Summary (cures), symbol (RIF-1 fibrosarcoma; [11]): −
Toxicity (Treatment associated death) (RIF-1 fibrosarcoma; [11]): 0
Summary (cures) % (RIF-1 fibrosarcoma; [12]): 33.33%
Toxicity (Treatment associated death) (RIF-1 fibrosarcoma; [12]): 2
Toxicity (Treatment associated death), number of animals (day) (RIF-1 fibrosarcoma; [12]): 2(1 day)
effectiveness of PDT (RIF-1 fibrosarcoma; 4-hour interval between drug administration and light treatment): not effective
effectiveness of PDT (RIF-1 fibrosarcoma; light treatments initiated within 1 hour of drug administration): effective
light dose required for a similar degree (50%) of cell killing [3]: 215 mJ/cm^2
change in the HPLC profile ([4]; stock solution at room temperature for 18 hours): no change in the HPLC profile
period for which solutions were stable ([4]; stored in acetone at −20° C.): at least 2 month
